Assay results as given in US7074796B2 (H. Lundbeck A/S, priority 1999, dated 2006).
pIC50: −log10 of the molar value. Counter-ions that a name gives are not always drawn.

Experiments:
[1] = molecular target: T1, human cloned dopamine D4.2 receptors (Homo sapiens, UniProt P21917, DEL265-296); assay: Inhibition of the binding of [3H]YM-09151-2 to human dopamine D4 receptors; settings: [3H]YM-09151-2 0.06 nM, membranes of CHO-cells; read-out: D4-bind. IC50
T1 construct: expressed in transfected cells; host or cells: CHO cells
T1 sequence (P21917 with tags, fused parts or gaps DEL265-296): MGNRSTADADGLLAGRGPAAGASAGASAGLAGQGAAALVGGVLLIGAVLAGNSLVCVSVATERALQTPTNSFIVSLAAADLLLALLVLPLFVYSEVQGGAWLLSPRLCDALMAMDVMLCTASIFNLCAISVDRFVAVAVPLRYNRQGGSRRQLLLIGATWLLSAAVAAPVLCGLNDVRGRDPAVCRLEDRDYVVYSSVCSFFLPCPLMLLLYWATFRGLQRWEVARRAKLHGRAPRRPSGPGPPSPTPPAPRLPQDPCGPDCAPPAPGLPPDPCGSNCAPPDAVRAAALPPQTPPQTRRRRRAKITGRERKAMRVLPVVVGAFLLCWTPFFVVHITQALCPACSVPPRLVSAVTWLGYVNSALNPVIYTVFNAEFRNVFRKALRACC
Procedure: Inhibition of the Binding of [^3H]YM-09151-2 to Human Dopamine D4 Receptors
By this method the inhibition by drugs of the binding of [^3H]YM-09151–2 (0.06 nM) to membranes of human cloned dopamine D4.2 receptors expressed in CHO-cells is determined in vitro. Method modified from NEN Life Science Products, Inc., technical data certificate PC2533-10/96.

[2] = molecular target: T2, human cloned dopamine D3 receptors (Homo sapiens, UniProt P35462); assay: Inhibition of the binding of [3H]Spiperone to human D3 receptors; settings: [3H]Spiperone 0.3 nM, membranes of CHO-cells; for pIC50: read-out: D3-bind. IC50; for inhibition at 0.1 µM: 100 nM, read-out: D3-bind. % inhibition of binding at 100 nM
T2 construct: expressed in transfected cells; host or cells: CHO cells
T2 sequence (P35462 whole entry): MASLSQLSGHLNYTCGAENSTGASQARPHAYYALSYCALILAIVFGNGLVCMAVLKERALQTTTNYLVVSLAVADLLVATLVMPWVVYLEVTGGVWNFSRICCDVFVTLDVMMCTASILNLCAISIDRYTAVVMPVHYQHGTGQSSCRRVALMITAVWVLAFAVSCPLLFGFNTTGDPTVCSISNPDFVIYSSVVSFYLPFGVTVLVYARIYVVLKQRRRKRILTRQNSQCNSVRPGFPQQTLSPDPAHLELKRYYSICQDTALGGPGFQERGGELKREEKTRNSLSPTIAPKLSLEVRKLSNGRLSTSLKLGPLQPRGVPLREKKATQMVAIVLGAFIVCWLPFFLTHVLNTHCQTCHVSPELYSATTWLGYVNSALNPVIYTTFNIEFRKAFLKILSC
Procedure: Inhibition of the Binding of [^3H]Spiperone to Human D3 Receptors
By this method the inhibition by drugs of the binding [^3H]Spiperone (0.3 nM) to membranes of human cloned dopamine D3 receptors expressed in CHO-cells is determined in vitro. Method modified from MacKenzie et al. Eur. J. Pharm.-Mol. Pharm. Sec. 1994, 266, 79–85.

alpha-1 receptors = assay: Inhibition of binding of [3H]Prazosine to rat alpha-1 receptors; settings: [3H]Prazosine 0.25 nM, membranes from rat brain
Procedure: Inhibition of Binding of [^3H]Prazosine to Rat Alpha-1 Receptors
By this method the inhibition by drugs of the binding of [^3H]Prazosine (0.25 nM) to alpha-1 receptors in membranes from rat brain is determined in vitro. Method modified from Hyttel et al. J. Neurochem. 1985, 44, 1615–1622.

SMILES	melting point [°C]	pIC50 [1]	pIC50 [2]	pIC50 (alpha-1 receptors)	inhibition at 0.1 µM [2] [%]	Alpha-1 % inhibition of binding at 100 nM (alpha-1 receptors) [%]
Clc1cccc(N2CCN(CCCCCN3CCc4ccccc43)CC2)c1Cl (as salt: hydrochloride) [Compound 2c, 1-{5-[4-(2,3-Dichlorophenyl)piperazin-1-yl]pentyl}-2,3-dihydro-1H-indole]	219 to 228					
O=C1CCc2ccccc2N1CCCCN1CCN(c2cccc(Cl)c2Cl)CC1 (as salt: hydrochloride) [Compound 6, 1-{4-[4-(2,3-Dichlorophenyl)piperazin-1-yl]butyl}-3,4-dihydroquinolin-2(1H)-one]	234 to 235					
Clc1cccc(N2CCN(CCCCC3CCc4ccccc43)CC2)c1Cl (stereo not shown) (as salt: oxalate) [Compound 3, 1-(2,3-Dichlorophenyl)-4-[4-(indan-1-yl)butyl]piperazine]	171 to 176					
Clc1ccc2c(SCCN3CCN(c4cccc(Cl)c4Cl)CC3)c[nH]c2c1 (as salt: oxalate) [Compound 4, 6-Chloro-3-{2-[4-(2,3-dichlorophenyl)piperazin-1-yl]ethylsulfanyl}-1H-indole]	137 to 141					
O=C1CCc2ccccc2N1CCCCN1CCN(c2cccc(Cl)c2Cl)CC1 [Compound 6, 1-{4-[4-(2,3-Dichlorophenyl)piperazin-1-yl]butyl}-3,4-dihydroquinolin-2(1H)-one]		7.80	8.74	7.37		

Continued, values first:

melting point [°C]	pIC50 [1]	pIC50 [2]	pIC50 (alpha-1 receptors)	inhibition at 0.1 µM [2] [%]	Alpha-1 % inhibition of binding at 100 nM (alpha-1 receptors) [%]	SMILES
	8.41	8.17	6.02			Fc1ccc2[nH]cc(CCCN3CCN(c4cccc(Cl)c4Cl)CC3)c2c1 [Compound 5c, 3-{3-[4-(2,3-Dichlorophenyl)piperazin-1-yl]propyl}-5-fluoro-1H-indole]
	8.07	9.00	6.14			Fc1ccc2[nH]cc(CCCCN3CCN(c4cccc(Cl)c4Cl)CC3)c2c1 [Compound 5d, 3-{4-[4-(2,3-Dichlorophenyl)piperazin-1-yl]butyl}-5-fluoro-1H-indole]
	7.57		6.33	93		Clc1ccc2c(CCCN3CCN(c4cccc(Cl)c4Cl)CC3)c[nH]c2c1 [Compound 5e, 6-Chloro-3-{3-[4-(2,3-dichlorophenyl)piperazin-1-yl]propyl}-1H-indole]
	7.60			73	38	O=C(CCN1CCN(c2cccc(Cl)c2Cl)CC1)N1CCc2cc(F)ccc21 [Compound 7a, 3-[4-(2,3-Dichlorophenyl)piperazin-1-yl]-1-(5-fluoro-2,3-dihydro-1H-indol-1-yl)propan-1-one]
	7.28			65	6	O=C(CCCN1CCN(c2cccc(Cl)c2Cl)CC1)N1CCc2cc(F)ccc21 [Compound 7b, 4-[4-(2,3-Dichlorophenyl)piperazin-1-yl]-1-(5-fluoro-2,3-dihydro-1H-indol-1-yl)butan-1-one]
	7.21			92	45	O=C(CCCCN1CCN(c2cccc(Cl)c2Cl)CC1)N1CCc2cc(F)ccc21 [Compound 7c, 5-[4-(2,3-Dichlorophenyl)piperazin-1-yl]-1-(5-fluoro-2,3-dihydro-1H-indol-1-yl)pentan-1-one]
	8.22			85	44	O=C(CCN1CCN(c2cccc(Cl)c2Cl)CC1)N1CCc2ccccc2C1 [Compound 7d, 3-[4-(2,3-Dichlorophenyl)piperazin-1-yl]-1-(3,4-dihydro-1H-isoquinolin-2-yl)-propan-1-one]
	8.00			94	31	O=C(CCCN1CCN(c2cccc(Cl)c2Cl)CC1)N1CCc2ccccc2C1 [Compound 7e]
	8.10			73	92	O=C(CCN1CCN(c2ccccc2Cl)CC1)N1CCc2ccccc2C1 [Compound 8k, 3-[4-(2-Chlorophenyl)piperazin-1-yl]-1-(3,4-dihydro-1H-isoquinolin-2-yl)-propan-1-one]
	8.40			88	74	O=C(CCCN1CCN(c2ccccc2Cl)CC1)N1CCc2ccccc2C1 [Compound 8l, 4-[4-(2-Chlorophenyl)piperazin-1-yl]-1-(3,4-dihydro-1H-isoquinolin-2-yl)-butan-1-one]
	8.05			92	69	O=C(CCCN1CCN(c2ccccc2F)CC1)N1CCc2ccccc2C1 [Compound 9k, 1-(3,4-Dihydro-1H-isoquinolin-2-yl)-4-[4-(2-fluoro-phenyl)-piperazin-1-yl]-butan-1-one]
